Assay [1] concerns IL-1 production by human monocytes. The assay can be described thus: Inhibition of in vitro IL-1 production by LPS-stimulated human monocytes (IL-1 bioassay via EL-4 IL-2 secretion). Format: cell-based. As to conditions: Monocyte; human peripheral blood monocytes, compound 1 hr before LPS 50 ng/ml, 24 hours at 37°C. The method, then: The effects of compounds of Formula (I) on the in vitro production of IL-1 by human monocytes was examined using the following protocol.
Bacterial lipopolysaccharide (LPS) was used to induce IL-1 production by human peripheral blood monocytes. IL-1 activity was measured by its ability to stimulate a Interleukin 2 (IL-2) producing cell line (EL-4) to secrete IL-2, in concert with A23187 ionophore, according to the method of Simon et al., J. Immunol. Methods, 84, 85, (1985). Human peripheral blood monocytes were isolated and purified from either fresh blood preparations from volunteer donors, or from blood bank buffy coats, according to the procedure of Colotta et al., J. Immunol., 132, 936 (1984). 1 X 10^6 of such monocytes were plated in 24-well plates at a concentration of 1-2 million/ml per well. The cells were allowed to adhere for 2 hours, after which time non-adherent cells were removed by gentle washing. Test compounds were then added to the cells for 1 hour (hr) before the addition of lipopolysaccharide (50 ng/ml), and the cultures were incubated at 37°C for an additional 24 hours. At the end of the incubation period, culture supernatants were removed and clarified of cells and all debris. Culture supernatants were immediately assayed for IL-1 biological activity in the manner described above, as well as for prostaglandin and/or leukotriene concentrations by radioimmunoassay.

Assay [2] has as its system TNF production by Human Monocytes. The assay can be described thus: Inhibition of in vitro TNF production by LPS-stimulated human monocytes (radioimmunoassay / ELISA). In kind it is cell-based. As to conditions: Monocyte; human peripheral blood monocytes, compound 45 minutes before LPS 100 ng/ml, 16-18 hours at 37°C. The method, then: The effects of compounds of Formula (I) on the in vitro production of TNF by human monocytes was examined using the following protocol.
Human peripheral blood monocytes were isolated and purified from either blood bank buffy coats or plateletpheresis residues, according to the procedure of Colotta, R. et al., J. Immunol., 132(2):936 (1984). The monocytes were plated at a density of 1 X 10^6 cells/ml medium/well in 24-well multi-dishes. […]
The assay buffer consisted of 0.01M NaPO4, 0.15M NaCl, 0.025M EDTA and 0.1% sodium azide at pH 7.4. […] Tubes were centrifuged for 30 minutes at 2000 rpm, supernatants were carefully aspirated, and radioactivity associated with the pellets measured in a Beckman Gamma 5500 counter. […] The concentrations of TNF in the samples was read of a standard curve of rhTNF that was linear in the 157 to 20,000 pg/ml range.
Iodination of rhTNF was performed using a modified chloramine-T method of Frolik et al., J. Biol. Chem., 259:10995-11000 (1984). […] The peak radioactivity containing fractions were pooled and stored at -20°C. […] Biological activity of iodinated TNF was measured by the L929 cytotoxicity assay of Neale, M.L. et al., Eur. J. Can. […]

Some results are limits rather than exact numbers.

The values that follow come from EP0624159B1, “PYRIDYL SUBSTITUTED IMIDAZOLES” (SMITHKLINE BEECHAM CORPORATION, priority 1992, dated 1993).

As for `Fc1ccc(-c2nc(-c3ccccc3)cn2-c2ccncc2)cc1` [Example 1, 1-(4-Pyridyl)-2-(4-fluorophenyl)-4-phenylimidazole], the concentration for half-maximal inhibition (IC50) was 0.1 to 5 µM in assay [1] and 0.5 to 3.5 µM in assay [2].
In the case of `Oc1ccc(-c2cn(-c3ccncc3)c(-c3ccc(F)cc3)n2)cc1` [Example 2, 1-(4-Pyridyl)-2-(4-fluorophenyl)-4-(4-hydroxyphenyl)imidazole], the IC50 in assay [1] lay in the range of 0.1 to 5 µM; in assay [2] it was 0.5 to 3.5 µM.
As to `CSc1ccc(-c2cn(-c3ccncc3)c(-c3ccc(F)cc3)n2)cc1` [Example 3, 1-(4-Pyridyl)-2-(4-fluorophenyl)-4-(4-thiomethylphenyl) imidazole], the IC50 in assay [1] is more than 5 µM.
On to `C[S+]([O-])c1ccc(-c2cn(-c3ccncc3)c(-c3ccc(F)cc3)n2)cc1` (stereo not shown) [Example 4, 1-(4-Pyridyl)-2-(4-fluorophenyl)-4-(4-methylsulfinylphenyl)imidazole], for which the half-maximal inhibitory concentration (IC50) in assay [1] was more than 5 µM.
On to `Cc1cn(-c2ccncc2)c(-c2ccc(F)cc2)n1` [Example 5, 1-(4-pyridyl)-2-(4-fluorophenyl)-4-methylimidazole], for which the 50% inhibitory concentration (IC50) in assay [1] lay in the range of 0.1 to 5 µM.
